Results reported in patent US6599943B1, “Use of hydroxyguanidines” (WaPharm AB, priority 1996, dated 2003).
Structures can show the parent of a compound that is named as a salt.

Target: bovine milk xanthine oxidase (Bos taurus, UniProt P80457)
Assay: Capacity to sustain oxidation of xanthine by xanthine oxidase in the absence of oxygen, spectrophotometric
Assay type: biochemical
Set-up: host or cells: bovine milk
Details: for V = 1000 × (Δabs 295 nm) min^−1 (initial rate of the support of the oxidation of xanthine): 50 μM hydroxyguanidine, 50 μM xanthine, 0.05 units/ml xanthine oxidase, anaerobic, pH 7.5, 20° C., blank subtracted
Experimental: Capacities of a series of hydroxyguanidine to sustain the oxidation of xanthine by xanthine oxidase in the absence of oxygen. The capacities of various hydroxyguanidines to sustain the oxidation of xanthine was assayed by using a spectrophotometric method. In this method bovine milk xanthine oxidase was injected to a Helma® sealable cuvette for anaerobic application thereby creating 1 ml of a reaction mixture that contained reagents as follows: 50 μM of a hydroxyguanidine, 50 μM xanthine, 0.05 units/ml bovine milk xanthine oxidase, 50 mM Tris and 1.5 mM EDTA; the pH of the reaction mixture being 7.5, and the temperature 20° C. Anaerobic conditions were assured by pre-gassing all solutions used for 5-10 min, with nitrogen. The rate of formation of uric acid was monitored spectrophotometrically by measuring the increase in absorbance at 295 nm (the absorption maximum for uric acid) at intervals. The relative capacities of the hydroxyguanidines to sustain oxidation of xanthine were estimated from the derivative of the initial linear phase of the curves. To obtain blank readings an equal volume of the solvent of the hydroxyguanidine (water) was added to the reaction mixture in separate experiments and the initial rate of absorbance change was substracted from the rate readings of the tested hydroxyguanidine.
Exemplary initial rates for the rate of the support of the oxidation of xanthine obtained by assaying the exemplary hydroxyguanidines listed above by the method in the present example are furthermore given in Table 2: […]

bovine milk xanthine oxidase, sequence (P80457 whole entry): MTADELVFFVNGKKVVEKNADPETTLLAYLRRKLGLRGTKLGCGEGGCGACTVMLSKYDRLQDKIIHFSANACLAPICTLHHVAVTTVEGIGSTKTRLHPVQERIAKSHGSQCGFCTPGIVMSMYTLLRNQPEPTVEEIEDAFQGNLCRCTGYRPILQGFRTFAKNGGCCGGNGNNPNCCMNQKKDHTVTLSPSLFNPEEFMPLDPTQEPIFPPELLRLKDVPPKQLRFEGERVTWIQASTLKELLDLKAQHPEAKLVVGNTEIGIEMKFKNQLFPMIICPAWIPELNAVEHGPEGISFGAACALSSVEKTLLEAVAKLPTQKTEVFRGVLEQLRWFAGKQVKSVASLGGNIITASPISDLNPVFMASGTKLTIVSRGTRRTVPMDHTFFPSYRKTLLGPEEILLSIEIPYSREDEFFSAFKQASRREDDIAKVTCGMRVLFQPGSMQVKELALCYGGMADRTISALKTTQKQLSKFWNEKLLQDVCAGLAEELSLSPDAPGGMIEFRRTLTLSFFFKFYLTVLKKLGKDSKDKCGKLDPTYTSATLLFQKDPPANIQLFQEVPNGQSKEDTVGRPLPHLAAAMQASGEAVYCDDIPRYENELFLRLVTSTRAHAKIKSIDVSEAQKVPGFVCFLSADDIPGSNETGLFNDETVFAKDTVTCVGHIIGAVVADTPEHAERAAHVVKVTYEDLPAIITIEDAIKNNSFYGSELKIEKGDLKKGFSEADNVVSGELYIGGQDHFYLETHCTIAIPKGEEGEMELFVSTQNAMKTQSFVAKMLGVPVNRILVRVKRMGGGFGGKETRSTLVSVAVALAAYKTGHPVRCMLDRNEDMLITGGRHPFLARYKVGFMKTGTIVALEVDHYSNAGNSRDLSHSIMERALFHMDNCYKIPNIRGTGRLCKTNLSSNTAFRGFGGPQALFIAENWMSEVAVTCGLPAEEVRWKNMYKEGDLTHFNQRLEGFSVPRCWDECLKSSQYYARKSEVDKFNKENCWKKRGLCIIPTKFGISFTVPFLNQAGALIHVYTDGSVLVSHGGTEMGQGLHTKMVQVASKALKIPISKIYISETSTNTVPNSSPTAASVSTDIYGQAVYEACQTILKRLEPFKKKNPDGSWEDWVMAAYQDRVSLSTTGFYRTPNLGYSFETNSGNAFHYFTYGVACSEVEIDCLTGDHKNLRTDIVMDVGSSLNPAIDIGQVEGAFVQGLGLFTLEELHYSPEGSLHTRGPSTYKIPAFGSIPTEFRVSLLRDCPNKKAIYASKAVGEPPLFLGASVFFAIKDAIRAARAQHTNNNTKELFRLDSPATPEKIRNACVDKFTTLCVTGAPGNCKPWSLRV

| Compound | V = 1000 × (Δabs 295 nm) min^−1 (initial rate of the support of the oxidation of xanthine) | activity / capacity to undergo reduction (reaction A), in words (as disclosed in Example 7) |
| --- | --- | --- |
| COc1ccc(C=NNC(=N)NO)cc1Br [EN10, N-(3-Bromo-4-methoxybenzylideneamino)-N′-hydroxyguanidine tosylate] | 22 1000 × (Δabs 295 nm) min^−1 | – |
| N=C(NO)N/N=C/c1cccc(/C=N/NC(=N)NO)c1 [PR8, 1,3-Bis(N-hydroxyguanidinoiminomethyl)benzene tosylate chloride] | 29 1000 × (Δabs 295 nm) min^−1 | – |
| N=C(N)NO [Hydroxyguanidine, N-hydroxyguanidine] | 0.7 1000 × (Δabs 295 nm) min^−1 | – |
| N=C(NO)N/N=C/c1nccs1 [PR16, N-(Thiazolyl-2-methyleneamino)-N′-hydroxyguanidine tosylate] | 13 1000 × (Δabs 295 nm) min^−1 | – |
| COc1ccc(/C=N/NC(=N)NO)c(OC)c1 [DWO3, reference compound] | 29.4 1000 × (Δabs 295 nm) min^−1 | moderate capacity |
| N-(3- Chloro-5-trifuluoromethylpyridyl-2-methyleneamino)-N′-hydroxyguanidine tosylate [PR14] | 14 1000 × (Δabs 295 nm) min^−1 | – |
| COc1ccc(/C=N/NC(=N)NO)c(OC)c1C [DWO2, reference compound] | 30.7 1000 × (Δabs 295 nm) min^−1 | – |
| N=C(NO)N/N=C\C=C/c1ccccc1 [EN16, N-(3-Phenylpropenyleneamino)-N′-hydroxyguanidine tosylate] | 66 1000 × (Δabs 295 nm) min^−1 | – |
| N=C(NO)NN=Cc1ccc(C(F)(F)F)cc1 [EN12, N-(4-Trifluoromethylbenzylideneamino)-N′-hydroxyguanidine tosylate] | 11 1000 × (Δabs 295 nm) min^−1 | – |
| COc1cccc(/C=N/NC(=N)NO)c1 [LT11, reference compound] | 26 1000 × (Δabs 295 nm) min^−1 | – |
| N=C(NO)NN=C1CCCCC1 [PR4, N-(Cyclohexylideneamino)-N′-Hydroxyguanidine Tosylate] | 7 1000 × (Δabs 295 nm) min^−1 | – |
| COc1ccc(/C=N/NC(=N)NO)c(Cl)c1O [DWO5, reference compound] | 59.7 1000 × (Δabs 295 nm) min^−1 | – |
| Cc1cc2oc(/C=N/NC(=N)NO)cc(=O)c2cc1Cl [EN18, N-(6-Chloro-7-methyl-4oxo-4H-1-benzopyran-3-methyleneamino)-N′-hydroxyguanidine tosylate] | 5 1000 × (Δabs 295 nm) min^−1 | – |
| N=C(NO)NN=CCOc1c(Cl)cccc1Cl [PR17, N-(2,6-Dichlorophenoxyethylideneamino)-N′-hydroxyguanidine bromide] | −2 1000 × (Δabs 295 nm) min^−1 | – |
| CCCCCCOc1cccc(/C=N/NC(=N)NO)c1 [LT7, reference compound] | 12 1000 × (Δabs 295 nm) min^−1 | – |
| COc1cc(Br)c(/C=N/NC(=N)NO)cc1OC [DWO6, reference compound] | 30.7 1000 × (Δabs 295 nm) min^−1 | – |
| N=C(NO)N/N=C/c1cc[n+](O)cc1 [PR19, N-(N-Oxypyridyl-4-methyleneamino)-N′-hydroxyguanidine tosylate] | 5 1000 × (Δabs 295 nm) min^−1 | – |
| N=C(NO)N/N=C/c1c2ccccc2c(Cl)c2ccccc12 [LW01, reference compound] | 0 1000 × (Δabs 295 nm) min^−1 | – |
| ONc1ncn[nH]1 [PR6, 3-Hydroxyimino-1,2,4-triazole tosylate] | 4 1000 × (Δabs 295 nm) min^−1 | – |

| Compound | V = 1000 × (Δabs 295 nm) min^−1 (initial rate of the support of the oxidation of xanthine) | activity / capacity to undergo reduction (reaction A), in words (as disclosed in Example 7) |
| --- | --- | --- |
| COc1ccc(/C=N/NC(=N)NO)cc1OC [DWO1, reference compound] | 40 1000 × (Δabs 295 nm) min^−1 | – |
| N=C(NO)N/N=C/C1CCCCC1 [LT10, reference compound] | 3 1000 × (Δabs 295 nm) min^−1 | – |
| COc1ccc(/C=N/NC(=N)NO)cc1O [DWO4, reference compound] | 36.7 1000 × (Δabs 295 nm) min^−1 | – |
| COc1cc(/C=N/NC(=N)NO)c([N+](=O)[O-])cc1OC [DWO8, reference compound] | 45.4 1000 × (Δabs 295 nm) min^−1 | – |
| CC(=C/c1ccccc1)/C=N/NC(=N)NO [EN20] | 44 1000 × (Δabs 295 nm) min^−1 | – |
| N=C(NO)NN=CCc1ccccc1 [PR13, N-(Phenylethylideneamino)-N′-hydroxyguanidine tosylate] | 3 1000 × (Δabs 295 nm) min^−1 | – |
| COc1ccc(/C(C)=N/NC(=N)NO)cc1OC [PR11, 3,4-Dimethoxyacetophenone-N-hydroxyguanyl-hydrazone tosylate] | 12 1000 × (Δabs 295 nm) min^−1 | – |
| COc1ccc(/C=N/NC(=N)NO)cc1F [DWO7, reference compound] | 30.7 1000 × (Δabs 295 nm) min^−1 | – |
| Cc1nn(C)c(Cl)c1/C=N/NC(=N)NO [PR20, N-(5-Chloro-1,3-dimethylpyrazolyl-4-methyleneamino)-N′-hydroxyguanidine tosylate] | 13 1000 × (Δabs 295 nm) min^−1 | – |
| N=C(NO)NN=C(c1ccccc1)c1ccccc1 [PR2, N-(Diphenylmethyleneamino)-N′-Hydroxyguanidine Bromide] | 1 1000 × (Δabs 295 nm) min^−1 | – |
| N=C(NO)N/N=C/c1cccn1-c1ccc(Cl)cc1 [PR15, N-[1-(4-Chlorophenyl)-pyrrolyl-2-methyleneamino(]-N′-hydroxyguanidine tosylate] | 7 1000 × (Δabs 295 nm) min^−1 | – |
| N=C(NO)N/N=C/c1ccc(/C=N/NC(=N)NO)cc1 [PR1, 1,4-Bis(N-Hydroxyguanidinoiminomethyl)Benzene Bromide] | 63 1000 × (Δabs 295 nm) min^−1 | – |
| N=C(NO)N/N=C1\C(=O)Nc2ccc(F)cc21 [LT5, reference compound] | 50 1000 × (Δabs 295 nm) min^−1 | – |
| N=C(NO)N/N=C/c1ccc2c(c1)OCCO2 [LW04, reference compound] | 55 1000 × (Δabs 295 nm) min^−1 | – |
| N=C(NN)NO [Aminohydroxyguanidine, 1-amino-3-hydroxyguanidine, reference compound] | 1.4 1000 × (Δabs 295 nm) min^−1 | – |
| N=C(NO)NN=Cc1ccco1 [PR12, N-(Furyl-2-methyleneamino)-N′-hydroxyguanidine tosylate] | 11 1000 × (Δabs 295 nm) min^−1 | – |
| Cc1c(/C=N/NC(=N)NO)sc2ccccc12 [PR18, N-(3-Methylbenzo[b]thienyl-2-methyleneamino)-N'-hydroxyguanidine tosylate] | 43 1000 × (Δabs 295 nm) min^−1 | – |
| CC(C)CC=NNC(=N)NO [PR10, N-(3-Methylbutylideneamino)-N′-hydroxyguanidine tosylate] | −1 1000 × (Δabs 295 nm) min^−1 | – |
